Assays:
S1P1 = molecular target: T1, S1P1 (Homo sapiens, UniProt P21453); experiment: In vitro agonistic activity on S1P1, U2OS-EDG1 cells, LiveBLAzer FRET B/G; assay type: cell-based
T1 construct: host or cells: U2OS
Description: Assay Example 1: In Vitro Evaluation of the Agonistic Activity of the Compounds of the Present Disclosure on S1P1
Object of the assay: To detect the agonistic activity of compounds on S1P1
• 1. Cells U2OS-EDG1 (Batch No.: Invitrogen-K1520) were taken out of a liquid nitrogen tank and placed in a 37° C. water bath to thaw quickly; • 2. The cell suspension was aspirated into a 15 ml centrifuge tube, resuspended in 5 ml of preheated medium, and centrifuged at 1000 rpm for 5 min; • 3. The supernatant was discarded. The cells were resuspended in 10 ml of medium, transferred into a T75 culture flask, and cultivated in an incubator with 5% CO2 at 37° C. II. Agonist Assay • 1. The compounds were diluted to working concentrations, and serially diluted 3-fold by Echo 555 (manufacturer: Labcyte) to obtain 10 concentrations; 200 nL of each concentration of the compound was transferred to a cell plate and centrifuged at 1000 rpm for 15 seconds; • 2. Culture medium was aspirated from the culture flask; 4 mL of Dulbecco's phosphate buffer (DPBS, supplier: Coring, item No.: 21-031-CVR, batch No.: 03318006) was added, and the residual serum was washed away; 2 mL of trypsin was added; The mixture was incubated in an incubator at 37° C. for 2 min, and the cells were digested; 10 mL of seeding medium was added to resuspend the cells; 0.6 mL of cell suspension was taken out and counted; • 3. The density of cells was adjusted to 1.88E+05 cells/mL using seeding medium, with 40 μL per well (7500\well); 40 μL of FreeStyle™ Expression medium was added around the cell plate; The plate was let stand at room temperature for 15 min and incubated at 37° C. with 5% CO2 for 20 hours. III. Signal Detection • 1. LiveBLAzer™-FRET B/G Substrate (CCF4-AM) assay reagents were formulated according to the instructions; • 2. 8 μL of 6×Substrate Mixture was added to each well of the cell plate; The plate was centrifuged at 1000 rpm for 15 seconds, covered with a film, and incubated at 23° C. for 2 hours; The cell plate was subjected to Envision […] detection. IV. Data Analysis • 1. The raw data were converted into % Effect by using an equation, and the EC50 value can be obtained by curve fitting with four parameters [“log(agonist) vs. response—Variable slope” model in GraphPad Prism]; • 2. Calculation formula: Ratio=(460 nm−blank)/(535 nm−blank) % Effect=(SampleRatio−Ave LCRatio)/(Ave HCRatio−Ave LCRatio)×100%

[1] = Pharmacokinetic evaluation in SD rats (iv and oral); assay type: in vivo, Sprague Dawley rats; details: male, Sprague-Dawley, rat, plasma, iv 1.0, po 2.0 mg/kg
Description: Assay Example 2: Pharmacokinetic Evaluation of Compounds in Rats
Object of the assay: To evaluate the in vivo pharmacokinetics of the compounds in SD rats
Sprague Dawley rats (male, 200-300 g, 7-9 weeks old, Shanghai SLAC)
The pharmacokinetic characteristics of the compounds in rodents after intravenous injection and oral administration were assayed according to the standard protocol. In the assay, the candidate compounds were formulated into clear solutions and administered to rats by single intravenous injection and oral administration. The vehicle for intravenous injection and oral administration was DMSO and 10% hydroxypropyl β-cyclodextrin in water (DMSO:10% hydroxypropyl β-cyclodextrin in water=5:95). Whole blood samples were collected within 48 hours, and centrifuged at 3000 g for 15 minutes. The supernatant was separated to give plasma samples. 4 times the volume of acetonitrile solution containing internal standard was added to precipitate protein. The resulting mixture was centrifuged and the supernatant was taken out. An equal volume of water was added and the mixture was centrifuged. The supernatant was taken out, and injected as a sample to quantitatively analyze the plasma drug concentration by LC-MS/MS analysis method. The pharmacokinetic parameters, such as peak concentration, time to peak, clearance rate, half-life, area under drug-time curve, bioavailability, etc., were calculated.

[2] = system: ischemia-reperfusion cerebral infarction model; experiment: Ischemia-reperfusion cerebral infarction (MCAO) model in male SD rats; assay type: in vivo; details: 90-min MCAO ischemia-reperfusion, 1 mg/kg tail vein after reperfusion, model group 32.4%, P<0.05 vs. model group
Description: Assay Example 3: Pharmacodynamic Evaluation of the Compound in Ischemia-Reperfusion Cerebral Infarction Model in Male SD Rats Object of the assay: pharmacodynamic assay to explore the improvement of compound 32 on the ischemia-reperfusion cerebral infarction model in rats Materials of the assay: male SD rats (250 g-280 g, SPF grade, Zhejiang Vital River Laboratory Animal Technology Co., Ltd.) • 1) Anesthesia: Respiratory anesthesia with 2.5% isoflurane was used to maintain the depth of anesthesia for animals. • 2) Middle Cerebral Artery Occlusion (MCAO) Model: Animals weighed in the range of 250-280 g at the time of modeling surgery. […] For the administration of the assay sample group, compound 32 was injected through the tail vein of rats after reperfusion with a dose of 1 mg/kg and a volume of 5 mL/kg. • 3) Success criteria for the model: • 1: Within 60 minutes after surgery, the animals were scored according to the Bederson method, and the animals with a score of 2-3 were included in the group. • 2: Within 30-60 minutes of modeling, if the cerebral blood flow on the model side (left side) was reduced by more than 30% compared with that on the right side, the model was considered successful, and the animal was included in the group. […]

T1 sequence (P21453 whole entry): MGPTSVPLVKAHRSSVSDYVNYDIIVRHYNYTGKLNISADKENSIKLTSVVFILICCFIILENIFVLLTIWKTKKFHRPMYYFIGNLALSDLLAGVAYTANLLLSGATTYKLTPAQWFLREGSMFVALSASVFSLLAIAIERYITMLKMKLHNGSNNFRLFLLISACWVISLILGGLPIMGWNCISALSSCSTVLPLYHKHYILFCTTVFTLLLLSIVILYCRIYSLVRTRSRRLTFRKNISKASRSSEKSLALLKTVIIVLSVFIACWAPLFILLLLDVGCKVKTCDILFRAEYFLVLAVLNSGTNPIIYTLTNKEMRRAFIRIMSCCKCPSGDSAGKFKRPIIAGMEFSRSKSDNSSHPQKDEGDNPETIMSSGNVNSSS

EC50 (S1P1): 2.3 nM
Emax (S1P1; % Effect): 98.6%
clearance ([1]; intravenous, read-out: Clearance rate CL): 0.678 L/h/kg
Vd ([1]; intravenous, read-out: Distribution in tissue Vdss): 4.35 L/kg
bioavailability ([1]; read-out: Bioavailability F): 92.7%
Cmax ([1]; read-out: Peak concentration Cmax): 0.556 µM
AUC(0-t) ([1]; po, 2 mg/kg, PO, read-out: Area under drug-time curve AUC0-last PO): 5.47 µM·h
half-life ([1]; po, 2 mg/kg, PO, read-out: Half life T1/2 (PO) (converted)): 5.44 h
Compound: C/C(=N\OCc1ccc(OC(C)C)c(C(F)(F)F)c1)c1ccc2c(c1)CCC2N1CC(C(=O)O)C1 (stereo not drawn) [Compound 32]
Percentage of left cerebral infarct area [2]: 21.0%
